Values of other authors as cited in patent US8791078B2, “Cell protection in dialysis patients by administration of a creatine compound” (Crearene Ltd., priority 2009, dated 2014).

Key:
[1] = system: serum levels of homocysteine; conditions: creatine supplementation
[2] = system: total plasma homocysteine; conditions: chronic haemodialysis patients, oral creatine (2 giday)
[3] = biological target: T1, creatine Transporter Protein (CrT) (Homo sapiens, UniProt P48029); conditions: CrT in the plasma membrane
T1 sequence (P48029 1-635): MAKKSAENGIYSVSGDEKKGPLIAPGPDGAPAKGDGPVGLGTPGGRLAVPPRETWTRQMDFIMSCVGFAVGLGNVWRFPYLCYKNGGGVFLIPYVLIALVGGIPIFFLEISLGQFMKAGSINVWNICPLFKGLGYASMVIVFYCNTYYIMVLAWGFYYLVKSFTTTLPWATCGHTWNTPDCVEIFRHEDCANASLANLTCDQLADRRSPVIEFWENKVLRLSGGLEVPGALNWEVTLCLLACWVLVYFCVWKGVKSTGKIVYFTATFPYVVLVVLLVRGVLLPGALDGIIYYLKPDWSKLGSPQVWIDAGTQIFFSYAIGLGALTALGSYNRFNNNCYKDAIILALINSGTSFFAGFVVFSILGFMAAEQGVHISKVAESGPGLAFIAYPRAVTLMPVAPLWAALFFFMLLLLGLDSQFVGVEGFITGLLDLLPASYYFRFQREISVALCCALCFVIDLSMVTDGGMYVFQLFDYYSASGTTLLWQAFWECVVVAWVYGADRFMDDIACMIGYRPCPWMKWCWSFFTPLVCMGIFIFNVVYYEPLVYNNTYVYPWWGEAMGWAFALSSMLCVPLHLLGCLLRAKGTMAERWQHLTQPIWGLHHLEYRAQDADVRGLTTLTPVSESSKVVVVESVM

[4] = system: muscle cramps associated with haemodialysis; design: dose or concentration left out as unconfirmed; conditions: oral, before each dialysis session for 4 weeks

| Compound | effect on serum levels of homocysteine [1] | effect on total plasma homocysteine [2] | Km [3] | effect on muscle cramps associated with haemodialysis [4] |
| --- | --- | --- | --- | --- |
| CN(CC(=O)O)C(=N)N [creatine] | reduce serum levels of homocysteine | does not decrease total plasma homocysteine | 25 to 30 µM |  |
| CN(CC(=O)O)C(=N)N.O [creatine monohydrate] |  |  |  | alleviates muscle cramps associated with haemodialysis |
